# Reference: publication PMC4440444 (Theranostics, 2015)
# Where two headings read alike, the source gives them in different places.
# Test system: glioma
# Type: in vivo, human
# Conditions: for T/NTmax (maximum target to non-target ratio): brain PET/CT; for SUVmax in glioma: brain PET/CT before surgery
substance,measurement,setting,value
^18F-FDG,"T/NTmax in glioma, mean ± SD",eight glioma patients,0.86 ± 0.41
same,"SUVmax in glioma tissues, range","eight glioma patients, range",3.50-12.27
same,"T/NTmax in glioma, range","eight glioma patients, range",0.35-1.59
same,T/NTmax (maximum target to non-target ratio),"patient No. 1, WHO grade II",0.72
same,SUVmax in glioma,"patient No. 1, WHO grade II",7.40
same,T/NTmax (maximum target to non-target ratio),"patient No. 2, WHO grade II",0.35
same,SUVmax in glioma,"patient No. 2, WHO grade II",3.50
same,T/NTmax (maximum target to non-target ratio),"patient No. 3, WHO grade III",0.61
same,SUVmax in glioma,"patient No. 3, WHO grade III",7.27
same,T/NTmax (maximum target to non-target ratio),"patient No. 4, WHO grade IV",0.80
same,SUVmax in glioma,"patient No. 4, WHO grade IV",12.27
same,T/NTmax (maximum target to non-target ratio),"patient No. 5, WHO grade IV",0.72
same,SUVmax in glioma,"patient No. 5, WHO grade IV",5.76
same,T/NTmax (maximum target to non-target ratio),"patient No. 6, WHO grade IV",0.78
same,SUVmax in glioma,"patient No. 6, WHO grade IV",9.87
same,SUVmax in glioma,"patient No. 7, WHO grade IV",8.47
same,T/NTmax (maximum target to non-target ratio),"patient No. 8, WHO grade IV",1.59
same,SUVmax in glioma,"patient No. 8, WHO grade IV",4.20
